According to ChEMBL document CHEMBL3392990, “Multifunctional coumarin derivatives: monoamine oxidase B (MAO-B) inhibition, anti-β-amyloid (Aβ) aggregation and metal chelation properties against Alzheimer's disease” (Bioorg Med Chem Lett, 2015):

Experiments:
[1] = Permeability of the compound after 16 hrs by PAMPA; assay type: ADME; conditions: read-out: Peff
[2] = target: Amyloid-beta precursor protein (Homo sapiens) (UniProt P05067); assay: Inhibition of amyloid beta (1 to 42) (unknown origin) self-induced aggregation at 20 uM after 46 to 48 hrs by thioflavin-T fluorescence method
[3] = target: T1, Amine oxidase [flavin-containing] B (Homo sapiens, UniProt P27338); assay: Inhibition of human recombinant MAO-B using p-tyramine as substrate assessed as H2O2 production after 15 mins by fluorescence assay
T1 sequence (P27338 whole entry): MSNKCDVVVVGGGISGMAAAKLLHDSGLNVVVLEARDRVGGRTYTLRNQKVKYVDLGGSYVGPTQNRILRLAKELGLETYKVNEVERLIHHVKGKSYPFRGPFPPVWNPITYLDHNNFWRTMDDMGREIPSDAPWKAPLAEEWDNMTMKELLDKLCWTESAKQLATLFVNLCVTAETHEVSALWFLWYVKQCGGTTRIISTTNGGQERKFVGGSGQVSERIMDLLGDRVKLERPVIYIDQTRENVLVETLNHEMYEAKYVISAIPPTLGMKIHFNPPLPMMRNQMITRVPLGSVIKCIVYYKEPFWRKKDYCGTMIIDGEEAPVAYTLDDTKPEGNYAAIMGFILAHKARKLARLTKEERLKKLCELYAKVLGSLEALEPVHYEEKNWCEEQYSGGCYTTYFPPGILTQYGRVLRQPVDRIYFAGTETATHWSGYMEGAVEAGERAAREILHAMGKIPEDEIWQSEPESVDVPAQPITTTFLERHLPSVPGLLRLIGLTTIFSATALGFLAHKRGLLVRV

[4] = target: T2, Amine oxidase [flavin-containing] A (Homo sapiens, UniProt P21397); assay: Inhibition of human recombinant MAO-A using p-tyramine as substrate assessed as H2O2 production at 100 uM after 15 mins by fluorescence assay; conditions: 0.25 h
T2 sequence (P21397 whole entry): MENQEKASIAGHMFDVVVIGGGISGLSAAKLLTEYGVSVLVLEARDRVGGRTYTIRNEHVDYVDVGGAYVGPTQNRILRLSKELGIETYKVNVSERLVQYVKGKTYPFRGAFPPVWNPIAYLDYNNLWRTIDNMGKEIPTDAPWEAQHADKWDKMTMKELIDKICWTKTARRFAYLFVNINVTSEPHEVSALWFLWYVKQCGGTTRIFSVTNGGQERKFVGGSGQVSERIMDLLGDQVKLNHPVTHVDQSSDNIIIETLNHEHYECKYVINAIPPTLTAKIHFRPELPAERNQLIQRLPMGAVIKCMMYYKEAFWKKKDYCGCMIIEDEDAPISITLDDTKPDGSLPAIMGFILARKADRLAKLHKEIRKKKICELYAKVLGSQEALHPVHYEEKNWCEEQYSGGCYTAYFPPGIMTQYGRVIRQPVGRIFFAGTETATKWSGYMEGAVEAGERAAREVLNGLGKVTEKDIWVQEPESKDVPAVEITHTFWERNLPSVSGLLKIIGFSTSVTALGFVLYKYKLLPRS

[5] = target: T1, Amine oxidase [flavin-containing] B; assay: Ratio of pargyline IC50 to compound IC50 for human recombinant MAO-B
[6] = Cytotoxicity against rat PC12 cells assessed as cell viability at 1 to 100 uM after 24 hrs by MTT assay; assay type: cell-based; conditions: pc-12, 24 h
[7] = Cytotoxicity against human SH-SY5Y cells assessed as cell viability at 1 to 100 uM after 24 hrs by MTT assay; assay type: cell-based
[8] = Metal chelating activity of the compound assessed as formation of copper complex at 35 uM by UV-Vis spectrophotometry; assay type: physicochemical
[9] = target: T1, Amine oxidase [flavin-containing] B; assay: Irreversible inhibition of human MAO-B at 2 times IC50 using p-tyramine as substrate assessed as H2O2 production after 0 to 60 mins

Amyloid-beta precursor protein (Homo sapiens), sequence (P05067 whole entry): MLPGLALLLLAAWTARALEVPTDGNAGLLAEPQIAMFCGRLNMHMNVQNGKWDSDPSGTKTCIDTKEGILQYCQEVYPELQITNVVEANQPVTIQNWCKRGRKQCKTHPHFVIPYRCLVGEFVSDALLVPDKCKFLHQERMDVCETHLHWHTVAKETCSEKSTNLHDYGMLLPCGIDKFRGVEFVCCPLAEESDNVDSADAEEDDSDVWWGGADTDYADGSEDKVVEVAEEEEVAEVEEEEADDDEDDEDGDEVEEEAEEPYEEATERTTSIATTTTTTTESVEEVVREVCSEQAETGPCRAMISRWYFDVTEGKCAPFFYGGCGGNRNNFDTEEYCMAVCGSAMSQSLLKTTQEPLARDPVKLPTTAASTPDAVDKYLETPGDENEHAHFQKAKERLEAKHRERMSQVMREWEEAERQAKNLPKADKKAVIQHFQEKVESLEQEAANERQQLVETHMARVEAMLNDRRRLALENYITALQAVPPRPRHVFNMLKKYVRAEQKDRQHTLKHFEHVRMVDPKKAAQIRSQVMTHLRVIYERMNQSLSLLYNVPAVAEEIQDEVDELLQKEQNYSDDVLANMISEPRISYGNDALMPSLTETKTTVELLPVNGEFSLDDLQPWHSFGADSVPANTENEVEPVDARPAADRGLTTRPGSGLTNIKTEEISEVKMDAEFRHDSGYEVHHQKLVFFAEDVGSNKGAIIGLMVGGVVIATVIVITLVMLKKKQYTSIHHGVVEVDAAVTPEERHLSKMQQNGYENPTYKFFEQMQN

Row | Papp at 16 h [1] [×10⁻⁶ cm/s] | inhibition [2] [%] | IC50 [3] [nM] | inhibition at 100 µM [4] [%] | SMILES | other results
1 | 1.09 |  |  |  | C[C@]12C[C@H](O)[C@H]3[C@@H](CCC4=CC(=O)CC[C@@]43C)[C@@H]1CC[C@@H]2C(=O)CO [CORTICOSTERONE] | 
2 |  | 41.6 | 9330 | 23.6 | O=c1oc2cc(NCc3ccccc3O)ccc2c2c1CCC2 | 
3 | 0.83 |  |  |  | NCCc1ccc(O)c(O)c1 [DOPAMINE] | 
4 |  | 53.7 | 841 | 17.2 | O=c1oc2cc(/N=C/c3ccccc3O)ccc2c2c1CCCC2 | 
5 | 8.33 |  |  |  | C[C@]12CC[C@@H]3c4ccc(O)cc4CC[C@H]3[C@@H]1CC[C@@H]2O [ESTRADIOL] | 
6 |  | 50.3 |  |  | Cc1cc(=O)oc2cc(/N=C/c3ccc(O)cc3O)ccc12 | 
7 |  | 58.5 | 3420 | 22.6 | O=c1oc2cc(/N=C/c3ccc(O)cc3O)ccc2c2c1CCCC2 | 
8 | 8.9 | 52.9 | 81 | 3.5 | O=c1oc2cc(/N=C/c3ccccc3O)ccc2c2c1CCC2 | Ratio IC50 [5]: 2; Activity [6]: Non-toxic; Activity [7]: Non-toxic; Activity [8]: Active; inhibition (INH) [9]: Active
9 | 6.7 | 57.6 |  |  | Cc1c(C)c2ccc(/N=C/c3ccc(O)cc3O)cc2oc1=O | 
10 |  | 60.2 |  |  | Cc1c(Cl)c(=O)oc2cc(/N=C/c3ccc(O)cc3O)ccc12 | 
11 |  | 36.1 | 20100 | 39.4 | Cc1cc(=O)oc2cc(NCc3ccccc3O)ccc12 | 
12 | 4.7 | 56.4 | 217 | 67.6 | O=c1oc2cc(/N=C/c3ccc(O)cc3O)ccc2c2c1CCC2 | 
13 |  | 43.7 | 1240 | 53.6 | O=c1oc2cc(NCc3ccccc3O)ccc2c2c1CCCC2 | 

Further lines, the molecule ahead of its results:

Row | SMILES | Papp at 16 h [1] [×10⁻⁶ cm/s] | inhibition [2] [%] | IC50 [3] [nM] | inhibition at 100 µM [4] [%] | other results
14 | Cc1c(C)c2ccc(NCc3ccccc3O)cc2oc1=O | 12.3 | 47.7 |  |  | 
15 | Cc1cc(=O)[nH]c2cc(/N=C/c3ccccc3O)ccc12 |  | 35.6 | 12300 | 54.2 | 
16 | Cc1cc(=O)oc2cc(/N=C/c3ccc(Br)cc3O)ccc12 |  | 51.5 |  |  | 
17 | Cc1c(Cl)c(=O)oc2cc(/N=C/c3ccccc3O)ccc12 |  | 49.3 |  |  | 
18 | Cc1cc(=O)oc2cc(/N=C/c3ccccc3O)ccc12 |  | 44.8 | 723 | 47.2 | 
19 | Cc1ccc(/C=N/c2ccc3c(C)cc(=O)oc3c2)c(O)c1 |  | 49.4 |  |  | 
20 | Cc1cc(=O)[nH]c2cc(NCc3ccccc3O)ccc12 |  | 32.6 |  |  | 
21 | Cc1c(C)c2ccc(/N=C/c3ccccc3O)cc2[nH]c1=O |  | 49.1 | 1680 | 17.7 | 
22 | CN1C(C(=O)Nc2ccccn2)=C(O)c2ccccc2S1(=O)=O [PIROXICAM] | 1.72 |  |  |  | 
23 | Cc1c(Cl)c(=O)oc2cc(NCc3ccccc3O)ccc12 |  | 47.6 |  |  | 
24 | Cc1c(C)c2ccc(/N=C/c3ccccc3O)cc2oc1=O | 10.6 | 53.9 |  |  | 
25 | COc1ccc(/C=N/c2ccc3c(C)cc(=O)oc3c2)c(O)c1 |  | 50.2 |  |  | 
